Reference: patent US11912693B2, “Compounds for modulating S1P1 activity and methods of using the same” (TREVENA, INC., priority 2017, dated 2024)

How the values were obtained:
[1] = molecular target: T1, human sphingosine-1-phosphate receptor 1 (S1P1) (Homo sapiens (Human), UniProt P21453); assay: β-Arrestin2 recruitment assay (PathHunter), S1P1 CHO-K1 cells; type: cell-based; conditions: for Emax: CHO-K1, efficacy (SPAN) normalized to fingolimod, read-out: hS1P1 B-arrestin2 SPAN; for hS1P1 B-arrestin2 pEC50 / EC50: β-arrestin2 recruitment, S1P1 CHO-K1 cells; for EC50: read-out: hS1P1 B-arrestin2 pEC50 (converted)
How it was run: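 Enzyme-fragment complementation read-out: agonist-driven β-arrestin2 binding to ProLink-tagged human S1P1 in stable CHO-K1 cells restores β-galactosidase, measured 1 h at room temperature after a 60 min 37° C. compound incubation. Potency as pEC50, efficacy relative to fingolimod (SPAN).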
Target sequence in this assay (P21453 whole entry, looked up, the tested form may be a part): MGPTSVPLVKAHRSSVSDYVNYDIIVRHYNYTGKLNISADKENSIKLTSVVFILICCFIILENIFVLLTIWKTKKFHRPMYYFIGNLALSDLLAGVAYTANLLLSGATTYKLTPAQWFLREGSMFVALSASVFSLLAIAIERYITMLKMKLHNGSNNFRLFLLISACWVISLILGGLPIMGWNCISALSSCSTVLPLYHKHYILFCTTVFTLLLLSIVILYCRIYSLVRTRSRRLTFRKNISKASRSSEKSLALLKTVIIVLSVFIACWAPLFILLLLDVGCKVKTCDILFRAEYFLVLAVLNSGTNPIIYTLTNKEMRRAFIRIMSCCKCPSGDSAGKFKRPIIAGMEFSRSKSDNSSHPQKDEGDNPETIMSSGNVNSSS
Target sequence in this assay (P32121 whole entry partner, looked up, the tested form may be a part): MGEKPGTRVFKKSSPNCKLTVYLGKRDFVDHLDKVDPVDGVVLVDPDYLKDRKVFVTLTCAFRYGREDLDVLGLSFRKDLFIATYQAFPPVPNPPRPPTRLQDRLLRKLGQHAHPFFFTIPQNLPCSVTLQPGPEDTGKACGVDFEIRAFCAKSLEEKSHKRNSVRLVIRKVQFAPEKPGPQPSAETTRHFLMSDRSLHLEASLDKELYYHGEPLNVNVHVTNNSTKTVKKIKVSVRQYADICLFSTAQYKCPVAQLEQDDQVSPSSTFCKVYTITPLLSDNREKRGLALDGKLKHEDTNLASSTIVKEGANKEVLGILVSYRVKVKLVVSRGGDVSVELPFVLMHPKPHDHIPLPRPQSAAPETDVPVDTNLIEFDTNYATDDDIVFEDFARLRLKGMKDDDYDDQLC

[2] = molecular target: T1, human sphingosine-1-phosphate receptor 1 (S1P1); assay: Inhibition of cAMP production (HTRF cAMP HiRange), S1P1 CHO-K1 cells; type: cell-based; conditions: for Emax: CHO-K1, efficacy (SPAN) normalized to fingolimod, read-out: hS1P1 cAMP SPAN; for hS1P1 cAMP pEC50 / EC50: inhibition of cAMP production, S1P1 CHO-K1 cells; for EC50: read-out: hS1P1 cAMP pEC50 (converted)
How it was run: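 CHO-K1 cells stably co-expressing human S1P1 (C-terminal Prolink tag) and EA-β-arrestin2 were grown in AssayComplete Media 6 at 37° C. and 5% CO2, plated, and incubated overnight. Agonist-driven inhibition of intracellular cAMP was read by TR-FRET with the HTRF cAMP HiRange kit on a PheraStar reader. Potency is pEC50, and efficacy (SPAN) is normalized to fingolimod.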
Target sequence in this assay (P21453 whole entry, looked up, the tested form may be a part): as the sequence (P21453 whole entry, looked up, the tested form may be a part) above

Row | SMILES | Emax [1] | hS1P1 B-arrestin2 pEC50 [1] | Emax [2] | hS1P1 cAMP pEC50 [2] | EC50 [1] | EC50 [2]
1 | CC(C)Nc1ccc(-c2nnc(-c3ccc4[nH]ncc4c3)o2)cc1C#N [Compound 351, 5-[5-(1H-indazol-5-yl)-1,3,4-oxadiazol-2-yl]-2-[(propan-2-yl)amino]benzonitrile] | > 75% | >5 | > 75% | >6.5 | – | –
2 | N#Cc1cc(-c2nnc(-c3ccc4[nH]ncc4c3)o2)ccc1NCC1CC1 [Compound 352, 2-[(cyclopropylmethyl)amino]-5-[5-(1H-indazol-5-yl)-1,3,4-oxadiazol-2-yl]benzonitrile] | > 75% | >5 | > 75% | >6.5 | – | –
3 | N#Cc1cc(-c2nnc(-c3ccc4[nH]ncc4c3)o2)ccc1NCCF [Compound 353, 2-[(2-fluoroethyl)amino]-5-[5-(1H-indazol-5-yl)-1,3,4-oxadiazol-2-yl]benzonitrile] | > 75% | >5 | > 75% | >6.5 | – | –
4 | N#Cc1cc(-c2nnc(-c3ccc4[nH]cnc4c3)o2)ccc1NCC1CC1 [Compound 357, 5-[5-(1H-1,3-benzodiazol-5-yl)-1,3,4-oxadiazol-2-yl]-2-[(cyclopropylmethyl)amino]benzonitrile] | > 75% | >5 | > 75% | >6.5 | – | –
5 | Cc1nc(-c2ccccc2)oc1-c1cnc2c(c1)CC(=O)N2 [Compound 360, 5-(4-methyl-2-phenyl-1,3-oxazol-5-yl)-1H,2H,3H-pyrrolo[2,3-b]pyridin-2-one] | – | <5 | – | <6.5 | – | –
6 | Cc1ccccc1-c1noc(-c2ccc3scnc3c2)n1 [Compound 362, 5-[3-(2-methylphenyl)-1,2,4-oxadiazol-5-yl]-1,3-benzothiazole] | – | <5 | – | <6.5 | – | –
7 | COc1ccc(-c2nsc(-c3ccc4[nH]ccc4c3)n2)cc1 [Compound 363, 5-[3-(4-methoxyphenyl)-1,2,4-thiadiazol-5-yl]-1H-indole] | – | <5 | – | <6.5 | – | –
8 | COc1cccc(-c2nc(-c3ccc4[nH]ccc4c3)ns2)c1 [Compound 364, 5-[5-(3-methoxyphenyl)-1,2,4-thiadiazol-3-yl]-1H-indole] | – | <5 | – | <6.5 | – | –
9 | Cc1ccccc1-c1noc(-c2ccc3c(c2)CCC(=O)N3)n1 [Compound 365, 6-[3-(2-methylphenyl)-1,2,4-oxadiazol-5-yl]-1,2,3,4-tetrahydroquinolin-2-one] | – | >5 | – | <6.5 | – | –
10 | COc1cccc(-c2nc(-c3ccc4c(ccn4C(C)C)c3)ns2)c1 [Compound 366, 5-[5-(3-methoxyphenyl)-1,2,4-thiadiazol-3-yl]-1-(propan-2-yl)-1H-indole] | – | <5 | – | <6.5 | – | –
11 | Cc1ccccc1-c1noc(-c2ccc3c(c2)CCC(=O)N3C)n1 [Compound 367, 1-methyl-6-[3-(2-methylphenyl)-1,2,4-oxadiazol-5-yl]-1,2,3,4-tetrahydroquinolin-2-one] | – | <5 | – | <6.5 | – | –
12 | COc1ccccc1-c1noc(-c2ccc3[nH]ccc3c2)n1 [Compound 368, 5-(1H-indol-5-yl)-3-(2-methoxyphenyl)-1,2,4-oxadiazole] | – | <5 | – | <6.5 | – | –
13 | COc1ccccc1-c1noc(-c2ccc3[nH]cnc3c2)n1 [Compound 369, 5-(1H-benzo[d]imidazol-5-yl)-3-(2-methoxyphenyl)-1,2,4-oxadiazole] | – | <5 | – | <6.5 | – | –
14 | COc1ccccc1-c1noc(-c2ccc3c(cnn3C(C)C)c2)n1 [Compound 370, 5-(1-isopropyl-1H-indazol-5-yl)-3-(2-methoxyphenyl)-1,2,4-oxadiazole] | – | >5 | – | >6.5 | – | –
15 | COc1ccccc1-c1noc(-c2ccc3[nH]ncc3c2)n1 [Compound 371, 5-(1H-indazol-5-yl)-3-(2-methoxyphenyl)-1,2,4-oxadiazole] | – | <5 | – | <6.5 | – | –
16 | COc1ccccc1-c1noc(-c2ccc3c(ccn3C(C)C)c2)n1 [Compound 372, 5-(1-isopropyl-1H-indol-5-yl)-3-(2-methoxyphenyl)-1,2,4-oxadiazole] | – | >5 | – | >6.5 | – | –
17 | COc1ccccc1-c1noc(-c2ccc3c(c2)ncn3C(C)C)n1 [Compound 373, 5-(1-isopropyl-1H-benzo[d]imidazol-5-yl)-3-(2-methoxyphenyl)-1,2,4-oxadiazole] | – | <5 | – | <6.5 | – | –
18 | CC(C)n1ccc2cc(-c3nc(-c4ccccc4F)ns3)ccc21 [Compound 374, 5-[3-(2-fluorophenyl)-1,2,4-thiadiazol-5-yl]-1-(propan-2-yl)-1H-indole] | – | <5 | – | <6.5 | – | –

Row | SMILES | Emax [1] | hS1P1 B-arrestin2 pEC50 [1] | Emax [2] | hS1P1 cAMP pEC50 [2] | EC50 [1] | EC50 [2]
19 | COc1ccccc1-c1nc(-c2ccc3c(ccn3C(C)C)c2)ns1 [Compound 375, 5-[5-(2-methoxyphenyl)-1,2,4-thiadiazol-3-yl]-1-(propan-2-yl)-1H-indole] | – | >5 | – | >6.5 | – | –
20 | CN1C(=O)Cc2cc(-c3nc(-c4cccnc4)no3)ccc21 [Compound 377, 1-methyl-5-[3-(pyridin-3-yl)-1,2,4-oxadiazol-5-yl]-2,3-dihydro-1H-indol-2-one] | – | <5 | – | <6.5 | – | –
21 | COC(=O)C12C3C4C1C1C2C3C41c1nc(-c2ccc3c(c2)nnn3C(C)C)no1 (stereo not drawn) [Compound 378] | < 75% | – | < 75% | – | > 10 µM | > 316 nM
22 | CC(C)n1nnc2cc(-c3noc(C45C6C7C4C4C5C6C74C(=O)O)n3)ccc21 (stereo not drawn) [Compound 379] | < 75% | – | < 75% | – | > 10 µM | > 316 nM
23 | CC(C)n1ccc2cc(-c3nsc(-c4ccccc4F)n3)ccc21 [Compound 380, 5-[5-(2-fluorophenyl)-1,2,4-thiadiazol-3-yl]-1-(propan-2-yl)-1H-indole] | – | <5 | – | <6.5 | – | –
24 | Cc1ccccc1-c1nsc(-c2ccc3c(ccn3C(C)C)c2)n1 [Compound 381, 5-[3-(2-methylphenyl)-1,2,4-thiadiazol-5-yl]-1-(propan-2-yl)-1H-indole] | – | >5 | – | <6.5 | – | –
25 | Cc1ccccc1-c1noc(-c2cnc3c(c2)nnn3C(C)C)n1 [Compound 382, 3-(2-methylphenyl)-5-[3-(propan-2-yl)-3H-[1,2,3]triazolo[4,5-b]pyridin-6-yl]-1,2,4-oxadiazole] | – | >5 | – | >6.5 | – | –
26 | COc1ccccc1-c1noc(-c2cnc3c(c2)nnn3C(C)C)n1 [Compound 383, 3-(2-methoxyphenyl)-5-[3-(propan-2-yl)-3H-[1,2,3]triazolo[4,5-b]pyridin-6-yl]-1,2,4-oxadiazole] | – | >5 | – | >6.5 | – | –
27 | COc1cccc(-c2coc(-c3ccc4c(c3)nnn4C(C)C)n2)c1 [Compound 385, 5-[4-(3-methoxyphenyl)-1,3-oxazol-2-yl]-1-(propan-2-yl)-1H-1,2,3-benzotriazole] | > 75% | <5 | < 75% | <6.5 | – | –
28 | O=C1CCc2cc(-c3nc(-c4cccnc4)no3)ccc2N1 [Compound 386, 6-[3-(pyridin-3-yl)-1,2,4-oxadiazol-5-yl]-1,2,3,4-tetrahydroquinolin-2-one] | – | <5 | – | <6.5 | – | –
29 | CC(C)n1ccc2cc(-c3noc(-c4ccccc4F)n3)ccc21 [Compound 387, 5-(2-fluorophenyl)-3-(1-isopropyl-1H-indol-5-yl)-1,2,4-oxadiazole] | – | >5 | – | <6.5 | – | –
30 | CC(C)n1ccc2cc(-c3noc(-c4ccccc4Br)n3)ccc21 [Compound 388, 5-(2-bromophenyl)-3-(1-isopropyl-1H-indol-5-yl)-1,2,4-oxadiazole] | – | >5 | – | >6.5 | – | –
31 | Cc1ccccc1-c1nc(-c2ccc3c(ccn3C(C)C)c2)no1 [Compound 389, 3-(1-isopropyl-1H-indol-5-yl)-5-(o-tolyl)-1,2,4-oxadiazole] | – | >5 | – | >6.5 | – | –
32 | CC(C)n1ccc2cc(-c3noc(-c4ccccc4C(F)(F)F)n3)ccc21 [Compound 390, 3-(1-isopropyl-1H-indol-5-yl)-5-(2-(trifluoromethyl)phenyl)-1,2,4-oxadiazole] | – | >5 | – | >6.5 | – | –
33 | COc1cccc(-c2nc(-c3ccc4c(ccn4C(C)C)c3)no2)c1 [Compound 392, 3-(1-isopropyl-1H-indol-5-yl)-5-(3-methoxyphenyl)-1,2,4-oxadiazole] | – | <5 | – | <6.5 | – | –
34 | COc1ccc(-c2nc(-c3ccc4c(ccn4C(C)C)c3)no2)cc1 [Compound 393, 3-(1-isopropyl-1H-indol-5-yl)-5-(4-methoxyphenyl)-1,2,4-oxadiazole] | – | <5 | – | <6.5 | – | –
35 | CC(C)n1ccc2cc(-c3noc(-c4cccc(F)c4)n3)ccc21 [Compound 394, 5-(3-fluorophenyl)-3-(1-isopropyl-1H-indol-5-yl)-1,2,4-oxadiazole] | – | >5 | – | <6.5 | – | –
